Results taken from US20250188068A1, “AMIDO CYCLOPROPYL DERIVATIVES AS LPA RECEPTOR INHIBITORS” (CHIESI FARMACEUTICI S.P.A., priority 2022, published 2025).

Experiments:
[1] = target: T1, human recombinant LPA1 expressed in CHO cells (Homo sapiens, UniProt Q92633); experiment: FLIPR calcium mobilization assay, LPA1 antagonism in CHO-hLPA1 cells; type: cell-based; details: inhibition of LPA EC80 Ca2+ response, 30 min pre-incubation, range of activity
T1 construct: expressed in transfected cells; host or cells: CHO cells (CHO-hLPA1 cell line)
T1 sequence (Q92633 whole entry): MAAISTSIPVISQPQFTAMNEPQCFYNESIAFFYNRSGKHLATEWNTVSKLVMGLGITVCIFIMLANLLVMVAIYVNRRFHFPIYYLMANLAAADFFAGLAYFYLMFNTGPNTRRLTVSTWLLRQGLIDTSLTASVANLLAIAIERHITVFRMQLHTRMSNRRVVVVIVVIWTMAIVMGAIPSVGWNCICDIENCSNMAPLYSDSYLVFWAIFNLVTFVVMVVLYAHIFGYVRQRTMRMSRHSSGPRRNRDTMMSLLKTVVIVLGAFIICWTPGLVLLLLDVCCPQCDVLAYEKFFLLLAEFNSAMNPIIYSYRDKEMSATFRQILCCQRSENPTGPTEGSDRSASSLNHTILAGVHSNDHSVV
Description: The effectiveness of compounds of the present invention as LPA1 antagonist can be determined at the human recombinant LPA1 expressed in CHO cells, using a FLIPR assay in 384 well format.
CHO-hLPA1 cell lines are cultured in a humidified incubator at 5% CO2 in DMEM/F-12 (1:1) MIXTURE with 2 mM Glutamax, supplemented with 10% of Foetal Bovine Serum, 1 mM Sodium Pyruvate, 11 mM Hepes and 1× Penicillin/Streptomycin. CHO hLPA1 cells are seeded into black walled clear-bottom 384-well plates (#781091, Greiner Bio-One GmbH) at a density of 7,500 cells per well in 50 μl culture media and grown overnight in a 37° C. humidified CO2-incubator. Serial dilutions (1:3 or 1:4, 11 points CRC) of compounds are performed in 100% DMSO at 200× the final concentration. The compounds are diluted 1:50 prior to the experiment with Assay Buffer (20 mM HEPES, 145 mM NaCl, 5 mM KCl, 5.5 mM glucose, 1 mM MgCl2 and 2 mM CaCl2), pH 7.4 containing 0.01% Pluronic F-127) to obtain a solution corresponding to […] the final concentration in the assay (4×, 2% DMSO). The final concentration of DMSO in the assay will be 0.5% in each well. Medium is removed by aspiration and cells are then incubated with 30 μl of a loading solution containing 5 μM of the cytoplasmic Ca2+ indicator Cal-520 AM in Assay Buffer containing 2.5 mM probenecid for 30 min at 37° C. incubator (cell loading). The loaded cell plates are transferred into the FLIPR instrument and calcium responses are monitored during the on-line addition protocols. For testing of compounds, after the cell loading, 10 μl/well of 4× antagonists' solution was added onto the cells. After 30 min pre-incubation (at 37° C.), 10 μl/well of 5× concentrated LPA EC80 was added and Ca2+ mobilization responses was followed during the on-line addition protocol. Intracellular peak fluorescence values subtracted by baseline fluorescence are exported and analysed to determine IC50 values, respectively. The calcium response is expressed as percentage of the maximal inhibition of the EC80 agonist response.
The raw data obtained in unstimulated controls (DMSO, no LPA) are set as “100% inhibition”, while the raw data obtained in negative controls, i.e. in the absence of compounds and stimulating with LPA EC80, are set as “0% inhibition”.
The raw data (peak height expressed as relative fluorescence units) are normalized and transformed into “percent of inhibition”. Curve fitting and pIC50 (−Log IC50) estimations are carried out using a four-parameter logistic model using XLfit Software.

[2] = tested on: Caco-2 cells monolayers (human colon carcinoma cell line); details: Caco-2, 60 min, 10 μM, pH 7.4
Description: The permeability of the compounds of the present invention was evaluated performing the assay on Caco-2 cells monolayers (human colon carcinoma cell line) by measuring the transport of compound (absorption and secretion) in both directions: apical to basolateral direction (AtoB) and basolateral to apical (BtoA) with and without P-gp inhibitor (Elacridar).
Caco 2 cells were kept in culture using MEM containing 20% FBS, 1 mM Sodium Pyruvate, 2 mM Glutamine and Pen/Strep. […]
Monolayer integrity of Caco-2 cells was evaluated before and after the experiment with TEER measurements using a Millicell ERS meter (Electrical Resistance System, from Millipore) and after the experiment using the paracellular permeability marker Lucifer yellow. […]
Test compound transport was measured in two directions (apical to basolateral [AtoB] and basolateral to apical [BtoA]) in HBSS (Hank's Balanced Salt Solution) transport buffer at pH 7.4 (n=3). […]
The permeability coefficients (Papp) in both directions: apical to basolateral (AtoB) and basolateral to apical (BtoA) with and without P-gp inhibitor (Elacridar) was calculated in nm/sec, using the following equation: […]

Cc1noc(-c2ccc(NC(=O)C3C(C(=O)O)C3(F)F)cn2)c1NC(=O)O[C@H](C)c1ccccc1Cl (single isomer, unassigned) [Compound 5]
IC50 [1]: < 50 nM

Cc1nc(-c2onc(C)c2NC(=O)O[C@H](C)c2ccccc2Cl)ccc1NC(=O)C1C(c2noc(=O)[nH]2)C1(F)F (stereo partly drawn) [Compound 42, (R)-1-(2-chlorophenyl)ethyl (5-(5-(2,2-difluoro-3-(5-oxo-4,5-dihydro-1,2,4-oxadiazol-3-yl)cyclopropane-1-carboxamido)-6-methylpyridin-2-yl)-3-methylisoxazol-4-yl)carbamate]
Passive Permeability [2]: ≤5 nm/s
IC50 [1]: < 50 nM

Cc1nc(-c2onc(C)c2Nc2cncc(OC(C)C)n2)ccc1NC(=O)C1C(C(=O)O)C1(F)F (single isomer, unassigned; diastereomer 2) [Compound 11]
IC50 [1]: < 50 nM

Cc1nc(-c2onc(C)c2NC(=O)O[C@H](C)c2ccccc2Cl)ccc1NC(=O)[C@H]1[C@H](C(=O)O)C1(F)F [Compound 2, (1R,3R)-3-((6-(4-((((R)-1-(2-chlorophenyl)ethoxy)carbonyl)amino)-3-methylisoxazol-5-yl)-2-methylpyridin-3-yl)carbamoyl)-2,2-difluorocyclopropane-1-carboxylic acid]
IC50 [1]: < 50 nM

Cc1nc(-c2onc(C)c2NC(=O)O[C@H](C)c2ccccc2Cl)ccc1NC(=O)[C@@H]1[C@@H](c2n[nH]c(=S)n2C)C1(F)F [Compound 44, (R)-1-(2-chlorophenyl)ethyl (5-(5-((1S,3S)-2,2-difluoro-3-(4-methyl-5-thioxo-4,5-dihydro-1H-1,2,4-triazol-3-yl)cyclopropane-1-carboxamido)-6-methylpyridin-2-yl)-3-methylisoxazol-4-yl)carbamate]
IC50 [1]: 50 to 100 nM

Cc1nc(-c2onc(C)c2NC(=O)O[C@H](C)c2ccccc2Cl)ccc1CNC(=O)C1C(C(=O)O)C1(F)F (mixture of isomers) [Compound 17, 3-(((6-(4-((((R)-1-(2-chlorophenyl)ethoxy)carbonyl)amino)-3-methylisoxazol-5-yl)-2-methylpyridin-3-yl)methyl)carbamoyl)-2,2-difluorocyclopropane-1-carboxylic acid, mix of Trans diastereomers]
IC50 [1]: < 50 nM

Cc1nc(-c2onc(C)c2CNc2nccc(C3CCCCC3)n2)ccc1NC(=O)C1C(C(=O)O)C1(F)F (single isomer, unassigned; enantiomer 1) [Compound 19, Single Enantiomer 1 of Trans-3-((6-(4-(((4-cyclohexylpyrimidin-2-yl)amino)methyl)-3-methylisoxazol-5-yl)-2-methylpyridin-3-yl)carbamoyl)-2,2-difluorocyclopropane-1-carboxylic acid]
IC50 [1]: < 50 nM
